PMC7377239, “Cardiovascular Effects of Polychlorinated Biphenyls and Their Major Metabolites” (Environmental Health Perspectives, 2020)
Counter-ions that a name gives are not always drawn. Like-named read-outs stand apart in the source and are kept apart here.

What was measured:
[1] = test system: iCell endothelial cells (human iPSC-derived ECs); test: High-content imaging cytotoxicity in iCell endothelial cells, 24 h; type: cell-based; details: Homo sapiens, Endothelial cell, 24 hr; for viability at 0.1 µM / activity at 0.1 µM: 0.10 µM
Summary of the method: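 Human iPSC-derived endothelial cells (passages 1–5) were grown to a fibronectin-coated monolayer, then exposed 24 h at 37 °C with 0.5% DMSO vehicle. Staining was Hoechst 33342, MitoTracker Orange and calcein AM, read by high-content imaging. Point of departure came from 4-parameter logistic fits, with a 1-SD vehicle cutoff and 100 µM as the top concentration.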

[2] = test system: iCell endothelial cells (human iPSC-derived ECs); test: Tube formation (tubulogenesis) assay in iCell endothelial cells, 18 h; type: cell-based; details: Homo sapiens, Endothelial cell, 18 hr; for activity at 0.1 µM: 0.10 µM
Summary of the method: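 iCell ECs (passages 1–5) seeded 7,500 cells/well on reduced-growth-factor Geltrex in starvation medium, exposed overnight at 37°C to compounds in triplicate concentration–response (0.5% DMSO vehicle). Calcein AM staining, 4× imaging, angiogenesis image analysis; readouts normalized to vehicle, four-parameter logistic fit, POD at 1 SD of vehicle; 100 μM assigned NOAEL if no response.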

[3] = iPSC-EC, 0.00 µM control = 100.00, read-out: endo.cyto.24hr
[4] = iPSC-EC, 0.00 µM control = 100.00, read-out: endo.mito.24hr
[5] = iPSC-EC, 0.00 µM control = 100.00, read-out: endo.mitoint.24hr
[6] = iPSC-EC, 0.00 µM control = 100.00, read-out: endo.nma.24hr
[7] = iPSC-EC, 0.00 µM control = 100.00, read-out: endo.tc.24hrs
[8] = iPSC-EC tube formation, 0.00 µM control = 100.00, read-out: endo.mtl.18hr
[9] = iPSC-EC tube formation, 0.00 µM control = 100.00, read-out: endo.tlps.18hr
[10] = iPSC-EC tube formation, 0.00 µM control = 100.00, read-out: endo.tta.18hr
[11] = iPSC-EC tube formation, 0.00 µM control = 100.00, read-out: endo.ttl.18hr
[12] = endothelial cells (endo), cyto, read-out: POD endo.cyto.24hr
[13] = endothelial cells (endo), mito, read-out: POD endo.mito.24hr
[14] = endothelial cells (endo), mitoint, read-out: POD endo.mitoint.24hr
[15] = endothelial cells (endo), nma, read-out: POD endo.nma.24hr
[16] = endothelial cells (endo), tc, read-out: POD endo.tc.24hr
[17] = endothelial cells (endo), tube formation mtl, read-out: POD endo.mtl.18hr
[18] = endothelial cells (endo), tube formation tlps, read-out: POD endo.tlps.18hr
[19] = endothelial cells (endo), tube formation tta, read-out: POD endo.tta.18hr
[20] = endothelial cells (endo), tube formation ttl, read-out: POD endo.ttl.18hr

COc1ccc(-c2ccc(Cl)cc2)cc1 [4'-OMe PCB3]
viability at 0.01 µM [1, 3]: 93.4% | activity at 0.01 µM [1, 4]: 93.4% | activity at 0.01 µM [1, 5]: 107% | activity at 0.01 µM [1, 6]: 105% | viability at 0.01 µM [1, 7]: 93.4% | viability at 0.1 µM [1, 3]: 103% | activity at 0.1 µM [1, 4]: 103% | activity at 0.1 µM [1, 5]: 99.7% | activity at 0.1 µM [1, 6]: 98.5% | viability at 0.1 µM [1, 7]: 103% | viability at 1 µM [1, 3]: 95.6% | activity at 1 µM [1, 4]: 96% | activity at 1 µM [1, 5]: 102% | activity at 1 µM [1, 6]: 102% | viability at 1 µM [1, 7]: 95.6% | viability at 10 µM [1, 3]: 108% | activity at 10 µM [1, 4]: 109% | activity at 10 µM [1, 5]: 107% | activity at 10 µM [1, 6]: 95% | viability at 10 µM [1, 7]: 108% | viability at 100 µM [1, 3]: 93.3% | activity at 100 µM [1, 4]: 93.7% | activity at 100 µM [1, 5]: 119% | activity at 100 µM [1, 6]: 99.7% | viability at 100 µM [1, 7]: 93.5% | minimal effective concentration ([1]; iPSC-EC, top concentration 100.00 µM, read-out: endo.cyto.24hr POD): 100 µM | minimal effective concentration ([1]; iPSC-EC, top concentration 100.00 µM, read-out: endo.mito.24hr POD): 100 µM | minimal effective concentration ([1]; iPSC-EC, top concentration 100.00 µM, read-out: endo.mitoint.24hr POD): 20.5 µM | minimal effective concentration ([1]; iPSC-EC, top concentration 100.00 µM, read-out: endo.nma.24hr POD): 100 µM | minimal effective concentration ([1]; iPSC-EC, top concentration 100.00 µM, read-out: endo.tc.24hrs POD): 100 µM | activity at 0.01 µM [2, 8]: 101% | activity at 0.01 µM [2, 9]: 95.9% | activity at 0.01 µM [2, 10]: 157% | activity at 0.01 µM [2, 11]: 149% | activity at 0.1 µM [2, 8]: 102% | activity at 0.1 µM [2, 9]: 127% | activity at 0.1 µM [2, 10]: 130% | activity at 0.1 µM [2, 11]: 124% | activity at 1 µM [2, 8]: 96% | activity at 1 µM [2, 9]: 95% | activity at 1 µM [2, 10]: 127% | activity at 1 µM [2, 11]: 123% | activity at 10 µM [2, 8]: 76% | activity at 10 µM [2, 9]: 82.1% | activity at 10 µM [2, 10]: 58.6% | activity at 10 µM [2, 11]: 56.5% | activity at 100 µM [2, 8]: 65.6% | activity at 100 µM [2, 9]: 33% | activity at 100 µM [2, 10]: 46.5% | activity at 100 µM [2, 11]: 46.3% | minimal effective concentration ([2]; iPSC-EC tube formation, top concentration 100.00 µM, read-out: endo.mtl.18hr POD): 3.4 µM | minimal effective concentration ([2]; iPSC-EC tube formation, top concentration 100.00 µM, read-out: endo.tlps.18hr POD): 12.3 µM | minimal effective concentration ([2]; iPSC-EC tube formation, top concentration 100.00 µM, read-out: endo.tta.18hr POD): 7.76 µM | minimal effective concentration ([2]; iPSC-EC tube formation, top concentration 100.00 µM, read-out: endo.ttl.18hr POD): 7.16 µM

COc1ccc(-c2ccc(Cl)cc2)cc1 [4'-OMe-PCB 3, 4′-methoxy-4-chlorobiphenyl]
minimal effective concentration [1, 12]: 100 µM | minimal effective concentration [1, 13]: 100 µM | minimal effective concentration [1, 14]: 20.5 µM | minimal effective concentration [1, 15]: 100 µM | minimal effective concentration [1, 16]: 100 µM | minimal effective concentration [2, 17]: 3.4 µM | minimal effective concentration [2, 18]: 12.3 µM | minimal effective concentration [2, 19]: 7.76 µM | minimal effective concentration [2, 20]: 7.16 µM

O=S(=O)(O)Oc1ccc(-c2ccc(Cl)cc2)cc1 [4'-PCB 3 sulfate]
minimal effective concentration [1, 12]: 100 µM | minimal effective concentration [1, 13]: 100 µM | minimal effective concentration [1, 14]: 100 µM | minimal effective concentration [1, 15]: 100 µM | minimal effective concentration [1, 16]: 100 µM | minimal effective concentration [2, 17]: 4.33 µM | minimal effective concentration [2, 18]: 11.7 µM | minimal effective concentration [2, 19]: 16.8 µM | minimal effective concentration [2, 20]: 11 µM
